Structures can show the parent of a compound that is named as a salt. Where two headings read alike, the source gives them in different places. Positions of bridges follow the written chain, without caps; N, C: chain ends. Non-standard residues stand in square brackets, D forms with d. Residues, ends and D or L forms follow the SMILES beside them. *: point of attachment. Trp(7-(3-AcNH-Ph)) = CC(=O)Nc1cccc(-c2cccc3c(C[C@H](N)C(=O)O)c[nH]c23)c1; 2Nal(6-OH) = N[C@@H](Cc1ccc2cc(O)ccc2c1)C(=O)O; Trp(7-Me) = Cc1cccc2c(C[C@H](N)C(=O)O)c[nH]c12; Hexanoyl(6-NMe3+) = C[N+](C)(C)CCCCCC(=O)*; AEF = NCCOc1ccc(C[C@H](N)C(=O)O)cc1; 3Pal = N[C@@H](Cc1cccnc1)C(=O)O; Pen = CC(C)(S)[C@H](N)C(=O)O; Thp = NC1(C(=O)O)CCOCC1; Me2NCH2CH2 = CN(C)CC*; Tfa = O=C(C(F)(F)F)*; Sar = CNCC(=O)O
Columns and labels:
[1] = disulfide bond, 20-membered ring
IL-23R = molecular target: T1, IL-23R (Homo sapiens, UniProt Q5VWK5); test: IL23R Reporter Assay; assay type: cell-based; conditions: HEK293 cells containing IL-23R, IL-12Rβ1 and STAT-inducible luciferase reporter; 10 ng/mL IL-23; 5 h; read-out: IC50
T1 construct: host or cells: HEK293
T1 sequence (Q5VWK5 24-629): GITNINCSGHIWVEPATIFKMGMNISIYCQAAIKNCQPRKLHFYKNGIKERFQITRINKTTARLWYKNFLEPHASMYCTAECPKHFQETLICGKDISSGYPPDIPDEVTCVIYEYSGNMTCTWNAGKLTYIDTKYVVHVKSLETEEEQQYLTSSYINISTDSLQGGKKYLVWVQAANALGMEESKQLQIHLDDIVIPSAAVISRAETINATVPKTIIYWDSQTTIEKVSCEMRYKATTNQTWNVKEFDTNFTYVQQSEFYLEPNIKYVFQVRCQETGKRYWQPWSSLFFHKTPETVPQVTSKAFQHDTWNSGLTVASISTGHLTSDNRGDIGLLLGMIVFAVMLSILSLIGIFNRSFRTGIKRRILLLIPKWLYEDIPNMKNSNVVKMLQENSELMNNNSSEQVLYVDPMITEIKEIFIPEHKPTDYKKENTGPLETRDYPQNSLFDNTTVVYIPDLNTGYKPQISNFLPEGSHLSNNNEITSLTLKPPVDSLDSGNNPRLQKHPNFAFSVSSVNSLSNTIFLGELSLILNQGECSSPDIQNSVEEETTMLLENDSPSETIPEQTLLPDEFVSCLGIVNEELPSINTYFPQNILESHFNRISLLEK
Description: Compounds were serially diluted in 100% (v/v) DMSO) and plated using an Echo acoustic dispenser (Labcyte) into 1536-well non-treated black assay plates (Corning #9146). […] After 5 h at 37° C., 5% CO2, 95% relative humidity, cells were placed at 20° C. and treated with BioGlo reagent (Promega) according to the Manufacturer's instructions. Luminescence was measured on a Pherastar FSX (BMG LabTech).

[2] = molecular target: T2, IL-23-stimulated phosphorylated STAT3 in peripheral blood mononuclear cells (PBMCs) (Homo sapiens, UniProt Q5VWK5); test: PBMC pSTAT3 Assay; assay type: cell-based; conditions: PBMCs from healthy donors, IL-23 5 ng/mL, 30 minutes, read-out: PBMC pSTAT3 IC50
T2 sequence (Q5VWK5 24-629): T1 sequence (Q5VWK5 24-629)
Description: Cryopreserved peripheral blood mononuclear cells (PBMCs) from healthy donors were thawed and washed twice in ImmunoCult-XF T cell expansion medium (XF-TCEM) supplemented with CTL anti-aggregate wash. The cells were counted, resuspended at 2-6×10^5 cells per mL XF-TCEM supplemented with penicillin/streptomycin and 100 ng/mL IL-1β (BioLegend, 579404), and cultured in tissue culture flasks coated with anti-CD3 (eBioscience, 16-0037-85 or BD Pharmingen, 555329) at 37° C. in 5% CO2. On day 4 of culture, PBMCs were collected, washed twice in RPMI-1640 supplemented with 0.1% BSA (RPMI-BSA), and incubated in RPMI-BSA in upright tissue culture flasks for ˜4 hours at 37° C. in 5% CO2. Following this ‘starvation,’ a total of 6×10^4 cells in 30 μL RPMI-BSA was transferred into each well of a 384-well plate pre-spotted with peptide or DMSO. The cells were incubated for 30 minutes prior to the addition of IL-23 at a final concentration of 5 ng/mL. The cells were stimulated with cytokine for 30 minutes at 37° C. in 5% CO2, transferred onto ice for 10 minutes, and lysed. Cell lysates were stored at −80° C. until phosphorylated STAT3 was measured using the phospho-STAT panel kit (Meso Scale Discovery, K15202D).

Work on CC(=O)NCCCC[C@@H]1NC(=O)[C@H](Cc2c[nH]c3c(C)cccc23)NC(=O)[C@H]([C@@H](C)O)NC(=O)[C@H](CC(N)=O)NC(=O)[C@@H](NC(C)=O)C(C)(C)SSC(C)(C)[C@@H](C(=O)N[C@@H](Cc2ccc(OCCN)cc2)C(=O)N[C@@H](Cc2ccc3cc(O)ccc3c2)C(=O)NC2(C(=O)N[C@@H](CCC(=O)O)C(=O)N[C@@H](CC(N)=O)C(=O)N[C@@H](Cc3cccnc3)C(=O)N(C)CC(N)=O)CCOCC2)NC1=O [SEQ ID NO: 428, MeCO-Pen(3)-N-T-7MeW-K(Ac)-Pen(3)-AEF-6OH2Nal-THP-E-N-3Pya-Sar-CONH2] (Ac-[Pen]NT[Trp(7-Me)]K(Ac)[Pen][AEF][2Nal(6-OH)][Thp]EN[3Pal][Sar]-NH2; disulfide 1-6) yielded a ring closure, yield after HPLC ([1]; from Ac-Pen-Asn-Thr-7MeTrp-Lys(Ac)-Pen-AEF-6OH2Nal-THP-Glu-Asn-3Pya-Sar-NH2, I2/MeOH, 20% MeCN/H2O, 1.0 mM) of 8.61%, an IC50 (IL-23R) of under 10 nM and an IC50 [2] of under 0.01 nM.
CC(=O)NCCCC[C@@H]1NC(=O)[C@H](Cc2c[nH]c3c(-c4cccc(NC(C)=O)c4)cccc23)NC(=O)[C@H]([C@@H](C)O)NC(=O)[C@H](CC(N)=O)NC(=O)[C@@H](NC(=O)[C@@H](CCCNC(=N)N)NC(C)=O)C(C)(C)SSC(C)(C)[C@@H](C(=O)N[C@@H](Cc2ccc(OCCN)cc2)C(=O)N[C@@H](Cc2ccc3cc(O)ccc3c2)C(=O)NC2(C(=O)N[C@@H](CCC(=O)O)C(=O)N[C@@H](CC(N)=O)C(=O)N[C@@H](Cc3cccnc3)C(=O)N(C)CC(N)=O)CCOCC2)NC1=O [compound 287, MeCO-r-Pen(3)-N-T-7(3NAcPh)W-K(Ac)-Pen(3)-AEF-6OH2Nal-THP-E-N-3Pya-Sar-CONH2] (Ac-[dR][Pen]NT[Trp(7-(3-AcNH-Ph))]K(Ac)[Pen][AEF][2Nal(6-OH)][Thp]EN[3Pal][Sar]-NH2; disulfide 2-7) showed a ring closure, yield after HPLC ([1]; from Ac-dArg-Pen-Asn-Thr-7(3NAcPh)Trp-Lys(Ac)-Pen-AEF-6OH2Nal-THP-Glu-Asn-3Pya-Sar-NH2, I2/MeOH, 20% MeCN/H2O, 0.8 mM) of 26%, an IC50 (IL-23R) of under 10 nM and an IC50 [2] of 0.01 to 0.1 nM.
CC(=O)NCCCC[C@@H]1NC(=O)[C@H](Cc2c[nH]c3c(C)cccc23)NC(=O)[C@H]([C@@H](C)O)NC(=O)[C@H](CC(N)=O)NC(=O)[C@@H](NC(=O)[C@@H](CCCNC(=N)N)NC(C)=O)C(C)(C)SSC(C)(C)[C@@H](C(=O)N[C@@H](Cc2ccc(OCCN)cc2)C(=O)N[C@@H](Cc2ccc3cc(O)ccc3c2)C(=O)NC2(C(=O)N[C@@H](CCC(=O)O)C(=O)N[C@@H](CC(N)=O)C(=O)N[C@@H](Cc3cccnc3)C(=O)N(C)CC(=O)N[C@@H](CCCCNC(=O)COCCOCCNC(=O)COCCOCCNC(=O)CC[C@H](NC(=O)CCCCCCCCCCCCCCCCC(=O)O)C(=O)O)C(N)=O)CCOCC2)NC1=O gave a ring closure, yield after HPLC ([1]; from Ac-dArg-Pen-Asn-Thr-7MeTrp-Lys(Ac)-Pen-AEF-6OH2Nal-THP-Glu-Asn-3Pya-Sar-Lys(PEG2PEG2gEC18OH)-NH2, I2/MeOH, 20% MeCN/H2O, 0.857 mM) of 12.1%.
Work on Cc1cccc2c(C[C@@H]3NC(=O)[C@H]([C@@H](C)O)NC(=O)[C@H](CC(=O)N(C)C)NC(=O)[C@@H](NC(=O)[C@@H](CCCCNC(=O)CCCCC[N+](C)(C)C)NC(=O)C(F)(F)F)C(C)(C)SSC(C)(C)[C@@H](C(=O)N[C@@H](Cc4ccc(OCCN(C)C)cc4)C(=O)N[C@@H](Cc4ccc5cc(O)ccc5c4)C(=O)NC4(C(=O)N[C@@H](CCC(=O)N(C)C)C(=O)N[C@@H](CC(N)=O)C(=O)N[C@@H](Cc5cccnc5)C(=O)N(C)CC(=O)N(C)C)CCOCC4)NC(=O)[C@H](CCC(=O)N(C)C)NC3=O)c[nH]c12 [SEQ ID NO: 405, CF3CO-k(5cpa)-Pen(3)-N(N(Me)2)-T-7MeW-Q(N(Me)2)-Pen(3)-AEF(N(Me)2)-6OH2Nal-THP-Q(N(Me)2)-N-3Pya-Sar-CON(Me)2] (Tfa-[dK](Hexanoyl(6-NMe3+))[Pen]D(NMe2)T[Trp(7-Me)]E(NMe2)[Pen]Y(Me2NCH2CH2)[2Nal(6-OH)][Thp]E(NMe2)N[3Pal][Sar]-NMe2; disulfide 2-7) yielded a ring closure, yield after HPLC ([1]; from CF3CO-dLys(5cpa)-Pen-Asn(NMe2)-Thr-7MeTrp-Gln(NMe2)-Pen-AEF(NMe2)-6OH2Nal-THP-Gln(NMe2)-Asn-3Pya-Sar-NMe2, I2/MeOH, 20% MeCN/H2O, 0.51 mM) of 13.4%, an IC50 (IL-23R) of under 10 nM and an IC50 [2] of 0.01 to 0.1 nM.
CC(=O)NCCCC[C@@H]1NC(=O)[C@H](Cc2c[nH]c3c(C)cccc23)NC(=O)[C@H]([C@@H](C)O)NC(=O)[C@H](CC(N)=O)NC(=O)[C@@H](NC(=O)[C@@H](CCCNC(=N)N)NC(C)=O)C(C)(C)SSC(C)(C)[C@@H](C(=O)N[C@@H](Cc2ccc(OCCN)cc2)C(=O)N[C@@H](Cc2ccc3cc(Br)ccc3c2)C(=O)NC2(C(=O)N[C@@H](CCC(=O)O)C(=O)N[C@@H](CC(N)=O)C(=O)NC3(C(N)=O)CCOCC3)CCOCC2)NC1=O gave a ring closure, yield after HPLC ([1]; from Ac-dArg-Pen-Asn-Thr-7MeTrp-Lys(Ac)-Pen-AEF-6Br2Nal-THP-Glu-Asn-THP-NH2, I2/MeOH, 20% MeCN/H2O, 0.977 mM) of 34.1%.
In the case of Cc1cccc2c(C[C@@H]3NC(=O)[C@H]([C@@H](C)O)NC(=O)[C@H](CC(N)=O)NC(=O)[C@@H](NC(=O)CCOCCOCC[N+](C)(C)C)C(C)(C)SSC(C)(C)[C@@H](C(=O)N[C@@H](Cc4ccc(OCCN)cc4)C(=O)N[C@@H](Cc4ccc5cc(O)ccc5c4)C(=O)NC4(C(=O)N[C@@H](CCCCN(C)C(=O)CCOCCOCC[N+](C)(C)C)C(=O)N[C@@H](CC(N)=O)C(=O)N[C@@H](Cc5cccnc5)C(=O)N(C)CC(N)=O)CCOCC4)NC(=O)[C@H](CCCCN(C)C(=O)CCOCCOCC[N+](C)(C)C)NC3=O)c[nH]c12, the ring closure, yield after HPLC ([1]; from cPEG3aCO-Pen-Asn-Thr-7MeTrp-Lys(NMecPEG3a)-Pen-AEF-6OH2Nal-THP-Lys(NMecPEG3a)-Asn-3Pya-Sar-NH2, I2/MeOH, 20% MeCN/H2O, 0.6 mM) is reported as 11.7%.
With “MeCO-Pen(3)-N(N(Me)2)-T-7MeW-Dab(NMecarn)-Pen(3)-AEF-6OH2Nal-THP-Dab(NMecarn)-N-3Pya-Sar-CON(Me)2” the ring closure, yield after HPLC ([1]; I2/AcOH, MeCN/H2O, 2.09 mM) was 23%.
Molecule “MeCO-Pen(3)-E(2)-T-7MeW-K(Ac)-Pen(3)-AEF(2)-6OH2Nal-THP-K(Ac)-N-3Pya-Sar-CONH2” has a ring closure, yield after HPLC ([1]; I2/MeOH, 20% MeCN/H2O, 0.85 mM) of 8.28%.
With CC(=O)NCCCC[C@@H]1NC(=O)[C@H](Cc2c[nH]c3c(C)cccc23)NC(=O)[C@H]([C@@H](C)O)NC(=O)[C@H](CC(N)=O)NC(=O)[C@@H](NC(C)=O)C(C)(C)SSC(C)(C)[C@@H](C(=O)N[C@@H](Cc2ccc(OCCN)cc2)C(=O)N[C@@H](Cc2ccc3cc(O)ccc3c2)C(=O)NC2(C(=O)N[C@@H](CCC(=O)O)C(=O)N[C@@H](CC(N)=O)C(=O)N[C@@H](Cc3cccnc3)C(=O)N(C)CC(=O)N[C@@H](CCCCNC(=O)COCCOCCNC(=O)COCCOCCNC(=O)CC[C@H](NC(=O)CCCCCCCCCCCCCCCCC(=O)O)C(=O)O)C(N)=O)CCOCC2)NC1=O the ring closure, yield after HPLC ([1]; from Ac-Pen-Asn-Thr-7MeTrp-Lys(Ac)-Pen-AEF-6OH2Nal-THP-Glu-Asn-3Pya-Sar-Lys(PEG2PEG2gEC18OH)-NH2, I2/MeOH, 20% MeCN/H2O, 0.82 mM) was 12.9%.

— US20240279281A1, “Peptide Inhibitors of Interleukin-23 Receptor” (Janssen Pharmaceutica NV, priority 2023, published 2024)
